Measured values as given in patent publication US8927750B2, “Acyloxy- and phosphoryloxy-butadiene-Fe(CO)3 complexes as enzyme-triggered co-releasing molecules” (priority 2011, dated 2015).
Where two headings read alike, the source gives them in different places.

Assays:
Type in all cases: biochemical
pig liver esterase (PLE) [1] = system: pig liver esterase (PLE); design: key to cleaved by PLE: “+” indicates kinetic racemic resolution; “−” means that no reaction took place
[2] = system: lipase from Candida rugosa; design: key to cleaved by lipase from Candida rugosa: “+” indicates kinetic racemic resolution; “−” means that no reaction took place
[3] = system: horse skeletal myoglobin (Mb); assay: Carbon monoxide release (Mb-assay) without esterase/lipase; details: for carbon monoxide release without esterase/lipase: Mb solution, closed cell, 37° C.; for carbon monoxide release without esterase/lipase after exposure to air: cell opened to air for 2 s
Procedure: (§1) For this purpose, a solution of 30 mg Mb in 15 mL buffer was degassed by bubbling with argon for 10 min, then reduced by addition of an excess of Na2S2O4 and degassed again for 10 min. The concentration was determined by measuring a 1:10 diluted solution and using the following equation: A=ελ·c·l with ε408 nm=188000 L mol^−1 cm^−1
(§2) A stock solution of a complex in DMSO and a solution of the esterase in phosphate buffer were added under argon before the cell was closed to prevent re-oxidation of the Fe(II) in the Mb solution to Fe(III). […] Equivalents of the esterase are given relative to the inventive complex.
The Mb solution (c=93 μM) was reduced by the addition of 22 mg (126.4 μmol, 91 eq) of Na2S2O4 in 0.1 mL buffer. 0.7 mg (2.8 μmol) of 2-methoxycyclohexa-1,3-dienetricarbonyliron (0) were dissolved in 70 μL of DMSO to provide a 0.039 M solution. For the measurement, 6 μL (2.39·10^−7 mol, 1.3 eq) of this solution were added to 2.3 mL of the Mb solution (2.14·10^−7 mol, 1 eq).

pig liver esterase (PLE) [4] = assay: Carbon monoxide release (Mb-assay) with pig liver esterase; details: Mb solution, closed cell, 37° C.
Procedure: as §1, §2
The Mb solution (c=76 μM) was reduced by the addition of 23 mg (132.1 μmol, 116 eq) of Na2S2O4 in 0.1 mL buffer. 1.7 mg (6.2 μmol) of rac-96 were dissolved in 160 μL of DMSO to provide a 0.038 M solution. For the measurement, 6 μL (2.29·10^−7 mol, 1.3 eq) of this solution were added to 2.3 mL of the Mb solution (1.75·10^−7 mol, 1 eq) and 70 μL (approximately 0.01 eq) of a solution of 0.7 mg pig liver esterase (PLE) in 240 μL buffer.
The Mb solution (c=56 μM) was reduced by the addition of 22 mg (126.4 μmol, 151 eq) of Na2S2O4 in 0.1 mL buffer. 1.1 mg (3.0 μmol) of rac-13 were dissolved in 100 μL of DMSO to provide a 0.030 M solution. For the measurement, 3 μL (9.06·10^−8 mol, 0.7 eq) of this solution were added to 2.3 mL of the Mb solution (1.28·10^−7 mol, 1 eq) and 70 μL (approximately 0.01 eq) of a solution of 0.6 mg PLE in 240 μL buffer.

[5] = system: lipase from Candida rugosa; assay: Carbon monoxide release (Mb-assay) with lipase from Candida rugosa; details: for carbon monoxide release with lipase from Candida rugosa: Mb solution, closed cell, 37° C.
Procedure: as §1, §2
The Mb solution (c=88 μM) was reduced by the addition of 22 mg (126.4 μmol, 95 eq) of Na2S2O4 in 0.1 mL buffer. 3.4 mg (12 μmol) of rac-86 were dissolved in 300 μL of DMSO to provide a 0.041 M solution. For the measurement, 6 μL (2.45·10^−7 mol, 1.2 eq) of this solution were added to 2.3 mL of the Mb solution (2.03·10^−7 mol, 1 eq) and 70 μL (approximately 0.09 eq) of a solution of 5 mg lipase from Candida rugosa in 240 μL buffer.
The Mb solution (c=95 μM) was reduced by the addition of 23 mg (132.1 μmol, 92 eq) of Na2S2O4 in 0.1 mL buffer. 1.8 mg (5.6 μmol) of rac-87 were dissolved in 180 μL of DMSO to provide a 0.031 M solution. For the measurement, 12 μL (3.74·10^−7 mol, […]) of this solution were added to 2.3 mL of the Mb solution (2.19·10^−7 mol, 1 eq) and 140 μL (approximately 0.17 eq) of a solution of 15 mg lipase from Candida rugosa in 500 μL buffer.

[6] = system: lipase from Candida rugosa; details: open tube, 10 mg complex, 20 mg lipase
[7] = time 0 min, 12 mg complex, 15 mg enzyme
[8] = time 110 min, 12 mg complex, 15 mg enzyme

Compound: COC1=CCCC=C1.O=[C]=[Fe](=[C]=O)=[C]=O [2-methoxycyclohexa-1,3-dienetricarbonyliron (0), reference compound]
- cleaved by PLE (pig liver esterase (PLE) [1]; General Procedure I): −
- reaction with PLE (pig liver esterase (PLE) [1]; General Procedure I): did not react
- cleaved by lipase from Candida rugosa ([2]; General Procedure I): −
- reaction with lipase from Candida rugosa ([2]; General Procedure I): did not react
- carbon monoxide release without esterase/lipase [3]: no carbon monoxide release
- carbon monoxide release without esterase/lipase after exposure to air [3]: no carbon monoxide was released

Compound: CC(=O)OC1=CC(C)(C)CC(OC(C)=O)=C1.[C-]#[O+].[C-]#[O+].[C-]#[O+].[Fe] [rac-13, reference compound]
- carbon monoxide release with pig liver esterase (pig liver esterase (PLE) [4]): carbon monoxide release
- cleaved by PLE (pig liver esterase (PLE) [1]; General Procedure I): +
- conversion (%) (pig liver esterase (PLE) [1]; time 15 min, 13 mg complex, 0.8 mg enzyme): 3%
- conversion (%) (pig liver esterase (PLE) [1]; time 30 min, 13 mg complex, 0.8 mg enzyme): 12%
- conversion (%) (pig liver esterase (PLE) [1]; time 45 min, 13 mg complex, 0.8 mg enzyme): 54%
- conversion (%) (pig liver esterase (PLE) [1]; time 150 min, 13 mg complex, 0.8 mg enzyme): 64%
- conversion (%) (pig liver esterase (PLE) [1]; time 210 min, 13 mg complex, 0.8 mg enzyme): 80%
- cleaved by lipase from Candida rugosa ([2]; General Procedure I): −
- carbon monoxide release without esterase/lipase [3]: no significant amount of carbon monoxide was released

Compound: CC(=O)OC1=CCCC=C1.[C-]#[O+].[C-]#[O+].[C-]#[O+].[Fe] [rac-86, (RS)-[η^4-Cyclohexa-1,5-dien-1-yl-tricarbonyliron(0)]acetate]
- carbon monoxide release with lipase from Candida rugosa [5]: carbon monoxide release
- carbon monoxide release with pig liver esterase (pig liver esterase (PLE) [4]): carbon monoxide release
- cleaved by PLE (pig liver esterase (PLE) [1]; General Procedure I): −
- cleaved by lipase from Candida rugosa ([2]; General Procedure I): +
- conversion (%) ([2]; time 0 min, 8 mg enzyme): 0/0%
- conversion (%) ([2]; time 15 min, 8 mg enzyme): 32%
- conversion (%) ([2]; time 30 min, 8 mg enzyme): 68%
- conversion (%) ([2]; time 60 min, 8 mg enzyme): 82%
- conversion (%) ([2]; time 110 min, 8 mg enzyme): 93%
- conversion (%) ([2]; time 240 min, 8 mg enzyme): 98%
- carbon monoxide release without esterase/lipase [3]: no carbon monoxide was released
- conversion (%) ([6]; time 0 min): 0/0%
- conversion (%) ([6]; time 15 min): 60%
- conversion (%) ([6]; time 30 min): 79%
- conversion (%) ([6]; time 60 min): 85%
- conversion (%) ([6]; time 110 min): 97%

Compound: CC(C)(C)C(=O)OC1=CCCC=C1.[C-]#[O+].[C-]#[O+].[C-]#[O+].[Fe] [rac-87, (RS)-[η^4-Cyclohexa-1,5-dien-1-yl-tricarbonyliron(0)] pivalate]
- carbon monoxide release with lipase from Candida rugosa [5]: no carbon monoxide release
- carbon monoxide release with lipase from Candida rugosa after exposure to air ([5]; cell opened to air for 2 s after 360 min, conversion of Mb-O2 to MbCO): carbon monoxide release
- cleaved by PLE (pig liver esterase (PLE) [1]; General Procedure I): −
- cleaved by lipase from Candida rugosa ([2]; General Procedure I): +
- conversion (%) ([2]; time 0 min, 8 mg enzyme): 0/0%
- conversion (%) [2, 7]: 0/0%
- conversion (%) ([2]; time 30 min, 8 mg enzyme): 4%
- conversion (%) ([2]; time 60 min, 8 mg enzyme): 6%
- conversion (%) ([2]; time 110 min, 8 mg enzyme): 8%
- conversion (%) [2, 8]: 47%
- conversion (%) ([2]; time 240 min, 8 mg enzyme): 12%
- conversion (%) ([2]; time 240 min, 12 mg complex, 15 mg enzyme): 60%
- conversion (%) ([2]; time 24 h, 8 mg enzyme): 47%
- conversion (%) ([2]; time 24 h, 12 mg complex, 15 mg enzyme): 73%
- carbon monoxide release without esterase/lipase after exposure to air [3]: no carbon monoxide was released

Compound: CC(=O)OC1=CC=CCC1.[C-]#[O+].[C-]#[O+].[C-]#[O+].[Fe] [rac-96, (RS)-[θ^4-Cyclohexa-1,3-dien-1-yl-tricarbonyliron(0)]acetate]
- carbon monoxide release with pig liver esterase (pig liver esterase (PLE) [4]): carbon monoxide release
- cleaved by PLE (pig liver esterase (PLE) [1]; General Procedure I): +
- conversion (%) (pig liver esterase (PLE) [1]; time 0 min, 10 mg complex, 1 mg enzyme): 0%
- conversion (%) (pig liver esterase (PLE) [1]; time 120 min, 10 mg complex, 1 mg enzyme): 28%
- conversion (%) (pig liver esterase (PLE) [1]; time 180 min, 10 mg complex, 1 mg enzyme): 45%
- conversion (%) (pig liver esterase (PLE) [1]; time 300 min, 10 mg complex, 1 mg enzyme): 52%
- conversion (%) (pig liver esterase (PLE) [1]; time 420 min, 10 mg complex, 1 mg enzyme): 77%
- conversion (%) (pig liver esterase (PLE) [1]; time 540 min, 10 mg complex, 1 mg enzyme): 84%
- conversion (%) (pig liver esterase (PLE) [1]; time 660 min, 10 mg complex, 1 mg enzyme): 89%
- cleaved by lipase from Candida rugosa ([2]; General Procedure I): +
- conversion (%) [2, 7]: 0/0%
- conversion (%) ([2]; time 15 min, 12 mg complex, 15 mg enzyme): 43%
- conversion (%) ([2]; time 30 min, 12 mg complex, 15 mg enzyme): 57%
- conversion (%) ([2]; time 60 min, 12 mg complex, 15 mg enzyme): 76%
- conversion (%) [2, 8]: 83%
- carbon monoxide release without esterase/lipase [3]: no carbon monoxide release
- conversion (%) ([6]; time 0 min): 0/0%
- conversion (%) ([6]; time 15 min): 65%
- conversion (%) ([6]; time 30 min): 77%
- conversion (%) ([6]; time 60 min): 79%
- conversion (%) ([6]; time 110 min): 81%
